# Test results reported in patent US7517913B2, “Polyamine conjugates with acidic retinoids and preparation thereof” (priority 2002, dated 2009).
# Counter-ions that a name gives are not always drawn.
# Columns and labels:
# [1] = target: RNase P from Dictyostelium discoideum; test: RNase P inhibition (pre-tRNA(Ser) cleavage, double reciprocal plots and slope replots); type: biochemical; details: D. discoideum RNase P; 37° C., buffer D, 10% DMSO; from negative intercept of the slope replots
# Source text: Inhibitory Activity on RNAse P. We have developed a method by which we can estimate rapidly the biological activity of the polyamine-retinoid conjugates. This method is based on the effect of the polyamine-retinoid conjugates on RNase P activity and is described in detail under the EXAMPLE 7. All synthesized conjugates were screened for their effect on RNase P activity by constructing the dose response curves. […] The accurate estimation of the inhibitory potency on the RNAse P of the strongest polyamine-retinoid conjugates were elucidated by detailed kinetic analysis of their effect on D. discoideum or human epidermal keratinocytes RNase P activity. In order to carry out such analysis, the initial velocity in the presence or absence of the conjugate was determined from the initial slopes of time plots. The data plotted in double reciprocal plots (1/v versus 1/[S]) with increasing concentrations of polyamine-retinoid conjugates and the Ki values (the dissociation constant of the inhibitor (I), where I is a polyamine-retinoid conjugate, with the enzyme) were determined from the replots of the slopes of the double reciprocal plots versus the inhibitor's concentration (Papadimou et al., J. BIOL. CHEM. 273, 24375 (1998), Papadimou et al., SKIN PHARMACOL. APPL. SKIN PHYSIOL. 13, 345 (2000)). These replots lead to the graphical determination of Ki values from the negative intercept of the line with the I-axis. […] Similar plots were constructed for all conjugates. The Ki value is a very good measure for the accurate potency of the polyamine-retinoid conjugates. […] Similar Ki values were obtained with normal human epidermal keratinocytes RNase P.
# (§1) RNase P assays were carried out at 37° C. in 20 μbuffer D (50 mM Tris/HCl pH 7.6, 10 mM NH4Cl, 5 mM MgCl2 and 5 mM dithiothreitol) if RNase P isolated from D. discoideum was used (Stathopoulos et al.; EUR. J. BIOCHEM. 228, 976 (1995)) or buffer K (50 mM Tris/HCl pH 7.5, 100 mM NH4Cl, 5 mM MgCl2 and 5 mM dithiothreitol) if RNase P isolated from human epidermal keratinocytes was used (Drainas et al, unpublished data), containing 2-5 finol pre-tRNA^ser substrate (an in vitro labeled transcript of the Schizosaccharoinyces pombe tRNA^ser gene supSI) and 1.3 μg protein from the RNase P fraction. Stock solutions of retinoids (natural or synthetic), are prepared in 100% dimethylosulfoxide (DMSO). When retinoids are used, enzyme assays are carried out in the presence of 10% DMSO. The reactions were stopped by addition of 5 μl stop dye (80% formamide, 50 mM EDTA, 0.1% bromophenol blue, 0.1% xylene cyanol). Reaction products were resolved on a denaturing 10% polyacrylamide/8 M urea gel and visualized by autoradiography without drying. Activity was quantified by Cerenkov counting of excised gel slices.
# [2] = system: RNase P isolated from D. discoideum; details: literature reports; RNase P from D. discoideum and normal human epidermal keratinocytes; cited from earlier work
# [3] = system: RNase P from Dictyostelium discoideum; details: literature; RNase P isolated from D. discoideum and from normal human epidermal keratinocytes; cited from earlier work
# [4] = target: RNase P isolated from D. discoideum; test: RNase P inhibition assay, enzyme from D. discoideum; type: biochemical, Dictyostelium discoideum; details: negative intercept of slope replots, 37° C., buffer D, 10% DMSO
# Source text: Inhibitory Activity on RNAse P. We have developed a method by which we can estimate rapidly the biological activity of the polyamine-retinoid conjugates. This method is based on the effect of the polyamine-retinoid conjugates on RNase P activity and is described in detail under the EXAMPLE 7. All synthesized conjugates were screened for their effect on RNase P activity by constructing the dose response curves. […] In order to carry out such analysis, the initial velocity in the presence or absence of the conjugate was determined from the initial slopes of time plots. The data plotted in double reciprocal plots (1/v versus 1/[S]) with increasing concentrations of polyamine-retinoid conjugates and the Ki values (the dissociation constant of the inhibitor (I), where I is a polyamine-retinoid conjugate, with the enzyme) were determined from the replots of the slopes of the double reciprocal plots versus the inhibitor's concentration (Papadimou et al., J. BIOL. CHEM. 273, 24375 (1998), Papadimou et al., SKIN PHARMACOL. APPL. SKIN PHYSIOL. 13, 345 (2000)). These replots lead to the graphical determination of Ki values from the negative intercept of the line with the I-axis. […] Similar plots were constructed for all conjugates. The Ki value is a very good measure for the accurate potency of the polyamine-retinoid conjugates.
# as §1
# [5] = Manfredini et al., J. MED. CHEM., 40, 3851 (1997); cited from earlier work
# [6] = system: IL-2 production by peripheral blood mononuclear cells; test: Intracellular IL-2 in PMA/ionomycin-stimulated peripheral blood mononuclear cells (flow cytometry); type: cell-based, human
# Method: (§2) Anti-Inflammatory Activity. Preliminary experiments were performed to determine the optimum conditions for IL-2 and IFN-γ detection intracellularly (data not shown), which mainly involved determination of brefeldin, ionomycin and PMA concentrations and duration of the incubation period and of the brefeldin presence. It was determined that the addition at the initiation of the incubation period of 5 ng/ml of PMA in combination with 250 ng/ml of ionomycin, as well as the addition for the last 2 h of a 4 h incubation period of 5 μg/ml of brefeldin, were accompanied by a peak release of both cytokines in the intracellular space.
# (§3) For the purpose of the study, peripheral blood mononuclear cells (PBMC) from ten healthy volunteers (age 33-52 yrs) were incubated in 1 ml volume (RPMI 1640/10% FCS) for varying time periods at 37° C. in a CO2 (5%) incubator in the presence or absence of PMA (Sigma, St Louis, Mo.), ionomycin (Sigma, St Louis, Mo.) and/or the polyamine-retinoid conjugate (10^−4, 10^−5, 10^−6 M) as well as a protein transport inhibitor, brefeldin (Sigma, St Louis, Mo.) to prevent cytokine secretion in the extracellular space.
# (§4) Following this incubation, PBMC were stained with either an anti-CD4-FITC or anti-CD8-FITC monoclonal antibody (Beckton Dikinson Hellas, Athens, Greece) in a PBS buffer containing 0.5% BSA and 0.01% NaN3, and were subsequently fixed with paraformaldehyde and incubated overnight. In the next step, fixed PBMCs were washed and resuspended in a PBS buffer containing 0.5% BSA, 0.5% saponin (Sigma, St Louis, Mo.) (to permeabilize cells) and 0.01% NaN3. Fixed PBMC were subsequently stained with an anti-IL-2/PE or anti-IFN-γ/PE monoclonal antibody (Diaclone, Besancon, France) and analysed for intracellular expression of IL-2 or IFN-γ and membrane expression of the CD4 or CD8 antigens in a FACSCAN flow cytometer. Throughout this step, saponin-supplied PBS was used, since its permeabilisation effect is reversible. The immunofluorescence cut-off was set up in unstimulated cultures as background and results were expressed either as the percentage of CD4/IL-2+ and CD8/IL-2+ (FIG. 9) and CD8/IFN-γ^+ and CD4/IFN-γ^+ (FIG. 11) cells, or alternatively as their mean fluorescence intensity (FIGS. 10 and 12, respectively).
# [7] = system: IFN-γ production by peripheral blood mononuclear cells; test: Intracellular IFN-γ in PMA/ionomycin-stimulated peripheral blood mononuclear cells (flow cytometry); type: cell-based, human
# Method: as §2, §3
# as §4, with “In the next step, fixed PBMCs were washed and resuspended in a PBS buffer containing 0.5% BSA, 0.5% saponin (Sigma, St Louis, Mo.) (to permeabilize cells) and 0.01% NaN3.” left out, “Throughout this step, saponin-supplied PBS was used, since its permeabilisation effect is reversible.” left out
Structure (SMILES),Ki [1] [µM],inhibition of ribonuclease P (RNase P) [2],inhibition of the enzyme ribonuclease P (RNase P) [3],Ki [4] [µM],also measured
CCS(=O)(=O)c1ccc(/C=C(\C)c2ccc3c(c2)C(C)(C)CCC3(C)C)cc1 [Ro 15-1570],3600,inhibit,inhibit the enzyme ribonuclease P,,
"CC(C=CC1=C(C)CCCC1(C)C)=CC=CC(C)=CC(=O)NCCCNCCCCNCCCN [3DIIa, N^1-retinoylspermine]",,,,2.4,
"COc1cc(C)c(/C=C/C(C)=C/C=C/C(C)=C/C(=O)NCCCNCCCCNCCCNC(=O)/C=C(C)/C=C/C=C(C)/C=C/c2c(C)cc(OC)c(C)c2C)c(C)c1C [N^1,N^12-Aci2-Spermine (3DIb). 2 HCl, N^1,N^12-Aci2-Spermine]",0.95,,,,
"COc1cc(C)c(/C=C/C(C)=C/C=C/C(C)=C/C(=O)O)c(C)c1C [Acitretin (Aci), acitretin]",,inhibit,inhibit the enzyme ribonuclease P,8,
"CC1=C(/C=C/C(C)=C/C=C/C(C)=C/C(=O)O)C(C)(C)CCC1 [all-trans-Retinoic acid (RA), all-trans-retinoic acid]",,inhibit,inhibit the enzyme ribonuclease P,15,
CCOC(=O)c1ccc(/C=C(\C)c2ccc3c(c2)C(C)(C)CCC3(C)C)cc1 [Ro 13-6298],4350,inhibit,inhibit the enzyme ribonuclease P,,
"CC1=C(/C=C/C(C)=C/C=C/C(C)=C/CO)C(C)(C)CCC1 [Retinol, retinol]",,inhibit,inhibit the enzyme ribonuclease P,1480,
"CC1=C(/C=C/C(C)=C/C=C/C(C)=C/C(=O)NCCCNC(=O)/C=C(C)/C=C/C=C(C)/C=C/C2=C(C)CCCC2(C)C)C(C)(C)CCC1 [N^1, N^3-diretinoyl-1,3-diaminopropane]",,,,,cytostatic activity [5]: low cytostatic activity
C/C(=C\c1ccc(C(=O)O)cc1)c1ccc2c(c1)C(C)(C)CCC2(C)C [Ro 13-7410],45,inhibit,inhibit the enzyme ribonuclease P,,
"CC(C=CC1=C(C)CCCC1(C)C)=CC=CC(C)=CC(=O)N(CCCN)CCCCN(CCCN)C(=O)C=C(C)C=CC=C(C)C=CC1=C(C)CCCC1(C)C [3DIIIa, N^4,N^9-Bis(All-Trans-Retinoyl)Spermine]",,,,1.1,
O=C1c2c(O)cccc2Cc2cccc(O)c21 [anthralin],,,inhibit the enzyme ribonuclease P,,
"COc1cc(C)c(/C=C/C(C)=C/C=C/C(C)=C/C(=O)NCCCNCCCCNCCCN)c(C)c1C [N^1-Aci-Spermine (3DIIb). 3 HCl, N^1-Aci-Spermine]",2.45,,,,
"CC1=C(/C=C/C(C)=C/C=C/C(C)=C/C(=O)NCCCNCCCCNCCCNC(=O)/C=C(C)/C=C/C=C(C)/C=C/C2=C(C)CCCC2(C)C)C(C)(C)CCC1 [N^1,N^12-RA2-Spermine (3DIa), N^1,N^12-Bisretinoylspermine]",0.5,,,,"intensity of fluorescence (MFI) of CD4+/IL-2+ cells ([6]; 10^−4 M, PMA/ionomycin-induced): decrease; intensity of fluorescence (MFI) of CD8+/IL-2+ cells ([6]; 10^−4 M, PMA/ionomycin-induced): decrease; percentage of CD4+/IL-2+ cells ([6]; 10^−4 M, PMA/ionomycin-induced): decrease; percentage of CD8+/IL-2+ cells ([6]; 10^−4 M, PMA/ionomycin-induced): decrease; effect on PMA/ionomycin-induced IL-2 (percentage of CD4+/IL-2+ and CD8+/IL-2+ cells, intensity of fluorescence) ([6]; 10^−5 and 10^−6 M): minimal or no effect; CD4+/IFN-γ+ cell intensity of fluorescence ([7]; 10^−4 M, PMA/ionomycin-induced): decrease; percentage of CD8+/IFN-γ+ cells ([7]; 10^−4 M, PMA/ionomycin-induced): decrease; effect on IFN-γ (CD4+/IFN-γ+ intensity of fluorescence, percentage of CD8+/IFN-γ+ cells) ([7]; two lower concentrations, 10^−5 and 10^−6 M): minimal or no effect"
C=C1/C(=C\C=C2/CCC[C@]3(C)[C@@H]([C@H](C)/C=C/[C@@H](O)C4CC4)CC[C@@H]23)C[C@@H](O)C[C@@H]1O [calcipotriol],,inhibit,inhibit the enzyme ribonuclease P,,
"CC1=C(/C=C/C(C)=C/C=C/C(C)=C\C(=O)O)C(C)(C)CCC1 [Isotretinoin, 13-cis-retinoic acid]",,inhibit,inhibit the enzyme ribonuclease P,20,
